Experimental data published in paper PMC2841005 (Developmental and comparative immunology, 2010).

Assays:
Assay type in all cases: cell-based
[1] = test system: Gram-negative and Gram-positive bacterial strains; assay: Antibacterial activity against the panel of strains, broth micro-dilution assay
E. coli O157:H7 = assay: MIC, broth micro-dilution assay
bacteria = assay: Antibacterial test of the first synthetic 27-residue repeat peptide; details: data not shown

SLGTPDHYHGGRHSISRGSQSTGPTHPGYNRRNA [LP3A]
Antibacterial activity against the bacterial strains tested (in words) [1]: inactive
Activity against E. coli O157:H7 (in words) (E. coli O157:H7): inactive

RSVETLASQEHLSSLPMDSQETLLRGT
Killing of bacteria (in words) (bacteria): did not kill any bacteria

ESGNEPLWLYQGDNIPKAPSTAEHPFLPSIIDDVKFNPDRRYA [LP2A]
Antibacterial activity against the bacterial strains tested (in words) [1]: did not affect the bacterial growth

SVETLASQEHLSSLPMDSQETLLRGT [LP4A]
Antibacterial activity against the bacterial strains tested (in words) [1]: inactive

SLGTPDHYHGGRHSISRGSQSTGPTHPGYNRRNAR [LP3]
Antibacterial activity against the bacterial strains tested (in words) [1]: active against bacteria
Activity against E. coli O157:H7 (in words) (E. coli O157:H7): low activity

ESGNEPLWLYQGDNIPKAPSTAEHPFLPSIIDDVKFNPDRRYAR [LP2]
Antibacterial activity against the bacterial strains tested (in words) [1]: did not exhibit antimicrobial activity

SVETLASQEHLSSLPMDSQETLLRGTR [LP4]
Antibacterial activity against the bacterial strains tested (in words) [1]: no activity
